Patent US6432426B1, “Non-staining topical iodine composition and method” (Symbollon Corporation, priority 1998, dated 2002)

Columns and labels:
Human Skin = assay: Coloration of human skin by a 30 second exposure (vial contact on forearm); hue by Pantone chips, intensity against Brown No. 3 dye; format: in vivo
Source text: 1. […] Elemental iodine was weighed on an analytical balance and dissolved in one liter of water that had been acidified with 2 drops of 0.1N hydrochloric acid. The concentration of molecular iodine in the water was confirmed by potentiometric analysis (Gottardi, W., 1983. Fresenius Z. Anal. Chem., Vol. 314, pages 582-585). Samples were also titrated with thiosulfate to determine that at least 95% of the theoretical yield of titratable iodine was in the form of molecular iodine as opposed to triiodide. The concentration of molecular iodine was varied from 25 ppm to 330 ppm.
One dram vials (Kimble catalog #60931) were used to deliver 4 mL of the room temperature iodine solutions samples. The vials were placed on the forearm of a subject and then the forearm was inverted to initiate contact of the sample with the iodine solution. The contact area was a circle with a diameter of 1.3 cm. The samples were held on the arm for 30 seconds at room temperature. Three different subjects were used for this experiment. Immediately after the 30 second contact time the arms of the subjects were examined for stains; 10 minutes after the end of the contact time all subjects arms were examined for stains again..
For the purposes of this application, two different parameters were used to characterize the color and intensity of the term stain. The hue of the color imparted to skin was characterized by using the Pantone Color Matching System (Pantone Color Specifier, Pantone Inc., Carlstadt, N.J.) which allows comparison with 1,012 defined colors on two types of paper. Stains from triiodide were matched to the Pantone color chip No. 152C. Short-lived coloration from molecular iodine were matched to the Pantone color chip 1375C.
The intensity of any coloration on skin was characterized by applying an aqueous solution of known concentrations of a food dye, Brown No. 3 (Crompton & Knowles, Mahwah, N.J. —Code DP935159), for 10 seconds using the method described above for application of iodine. Brown No. 3 was applied to the skin at concentrations that ranged from 500 ppm to 30 ppm and the intensity of the color from Brown No. 3 was compared to the intensity of coloration from iodine compositions. For instance, the intensity of color 10 minutes after a 30 second contact with a 600 ppm aqueous triiodide solution was equivalent to the color from a 10 second exposure to a 250 ppm Brown No. 3 solution. In contrast, the intensity of color 10 minutes after a 30 second contact with a 300 ppm aqueous molecular iodine solution was equivalent to the color from a ten second exposure to a 30 ppm Brown No. 3 solution which is barely discernible.

epidermis = assay: Staining of epidermis by triiodide solutions, 10 second contact on forearm; format: in vivo, human
Procedure: 3. […] Solutions of triiodide were prepared by dissolving elemental iodine into oxygen-free solutions of sodium iodide that were at a pH of 4.5. A molar excess of iodide was used. Based on thiosulfate titrations, potentiometric measurements of iodine and ion selective electrode measurements of iodide ion, essentially all of the elemental iodine was converted into triiodide. Solutions of triiodide were made that varied from 100 to 25,000 ppm. Four mL of each sample was transferred to a 1.0 dram vial (Kimble catalog #60931) at room temperature and placed on the forearm of a subject and then the forearm was inverted to initiate contact of the sample with the triiodide solution. The samples were held on the arm for 10 seconds.
The contact areas were checked for stains at 10 minutes and 3 hours after exposure.

Staphylococcus aureus = assay: Residual biocidal effect of skin associated iodine, colony counts from inoculated treated skin; format: in vivo; details: solution with 700 ppm of triiodide, but no molecular iodine
Procedure: 5. […] […] […] […] The samples were contacted with the arm for 30 seconds. After contact the treated arm was flushed with water for 15 seconds and dried.
[…] Two hours after contact each area was inoculated with […] of a 1:100 dilution of a 48 hour soy-trypticase culture of Staphylococcus aureus. Ninety minutes after inoculation the mouths of sterile 25 mL flasks filled with 2 mL of soy-trypticase with 2% Tween 80 were placed over the marked skin areas. The flasks were gently shaken for 1 minute and a colony count was performed on blood agar plates after incubation at 37° C. for 48 hours. The residual biocidal effect from skin associated molecular iodine was determined by subtracting the log of the colony counts from the areas of skin that were contacted with iodine from the controls (log colony count from untreated skin). The average difference in colony counts between treated and untreated skin was 2.4 logs.

SMILES: I[IH]I [triiodide, reference compound]
- Intensity of color on skin, equivalent Brown No. 3 solution (10 second exposure) (Human Skin; 10 minutes after a 30 second contact with a 600 ppm aqueous triiodide solution): 250 ppm
- Hue of the color imparted to skin, matched Pantone color chip (Human Skin; Pantone Color Matching System): 152C
- Staining at three hours (epidermis; 100 ppm triiodide): staining was present at three hours but it was not visibly noticeable
- Degree of color (epidermis; 700 ppm triiodide, 3 hours after contact): minimally discernable
- Coloration of the epidermis 3 hours after contact (epidermis; triiodide at concentrations from 25,000 to 700 ppm): A definite coloration of the epidermis was evident
- Reduction in the concentration of pathogens (Staphylococcus aureus): no measurable reduction
